In one assay the test system is PBMC. The note with it: 12.5 µM.

The values that follow come from publication PMC12748989 (Nature Communications, 2025).

Take `CC[C@H](C)[C@H](N)C(=O)N[C@@H](CC(N)=O)C(=O)N[C@@H](CO)C(=O)N[C@@H](CCCCN)C(=O)N[C@@H](C)C(=O)N[C@@H](CC(C)C)C(=O)N[C@@H](C)C(=O)N[C@@H](C)C(=O)N[C@@H](CC(C)C)C(=O)N[C@@H](C)C(=O)N[C@@H](CCCCN)C(=O)N[C@@H](CCCCN)C(=O)N[C@H](C(=O)N[C@@H](CC(C)C)C(N)=O)[C@@H](C)CC` [S3]: the “Average (percentage cell inhibition), Dmastoparan MDA-MB231 12.5uM” value in the assay on MDA-MB-231 cells worked out at 12.1099%. Moreover, the “Average (percentage cell inhibition), Mastoparan PBMC” value in the assay with PBMC was determined as 5.178%.
For `CC[C@H](C)[C@H](N)C(=O)N[C@@H](CC(N)=O)C(=O)N[C@@H](CC(C)C)C(=O)N[C@@H](CCCCN)C(=O)N[C@@H](C)C(=O)N[C@@H](CC(C)C)C(=O)N[C@@H](C)C(=O)N[C@@H](C)C(=O)N[C@@H](CC(C)C)C(=O)N[C@@H](C)C(=O)N[C@@H](CCCCN)C(=O)N[C@@H](CO)C(=O)N[C@H](C(=O)N[C@@H](CC(C)C)C(N)=O)[C@@H](C)CC` [S12] the same measures were 38.966% and 1.96%.
For `CC[C@H](C)[C@H](N)C(=O)N[C@@H](CC(N)=O)C(=O)N[C@@H](Cc1c[nH]c2ccccc12)C(=O)N[C@@H](CCCCN)C(=O)N[C@@H](C)C(=O)N[C@@H](CC(C)C)C(=O)N[C@@H](C)C(=O)N[C@@H](C)C(=O)N[C@@H](CC(C)C)C(=O)N[C@@H](C)C(=O)N[C@@H](CCCCN)C(=O)N[C@@H](CCCCN)C(=O)N[C@H](C(=O)N[C@@H](CC(C)C)C(N)=O)[C@@H](C)CC` [W3] the same measures were 65.1242% and 22.6054%.
In the case of `CC[C@H](C)[C@H](N)C(=O)N[C@@H](CC(N)=O)C(=O)N[C@@H](CC(C)C)C(=O)N[C@@H](CCCCN)C(=O)N[C@@H](C)C(=O)N[C@@H](CC(C)C)C(=O)N[C@@H](C)C(=O)N[C@@H](C)C(=O)N[C@@H](CCCNC(=N)N)C(=O)N[C@@H](C)C(=O)N[C@@H](CCCCN)C(=O)N[C@@H](CCCCN)C(=O)N[C@H](C(=O)N[C@@H](CC(C)C)C(N)=O)[C@@H](C)CC` [R9], the “Average (percentage cell inhibition), Dmastoparan MDA-MB231 12.5uM” value with MDA-MB-231 cells turned out to be 12.7524%. For the same compound, the “Average (percentage cell inhibition), Mastoparan PBMC” value with PBMC is 5.887%.
For `CC[C@H](C)[C@H](N)C(=O)N[C@@H](CC(N)=O)C(=O)N[C@H](C(=O)N[C@@H](CCCCN)C(=O)N[C@@H](C)C(=O)N[C@@H](CC(C)C)C(=O)N[C@@H](C)C(=O)N[C@@H](C)C(=O)N[C@@H](CC(C)C)C(=O)N[C@@H](C)C(=O)N[C@@H](CCCCN)C(=O)N[C@@H](CCCCN)C(=O)N[C@H](C(=O)N[C@@H](CC(C)C)C(N)=O)[C@@H](C)CC)[C@@H](C)CC` [I3] the same measures were 30.5933% and 14.9456%.
Consider `CC[C@H](C)[C@H](N)C(=O)N[C@@H](CC(N)=O)C(=O)N[C@@H](CC(C)C)C(=O)N[C@@H](CCCCN)C(=O)N[C@@H](C)C(=O)N[C@@H](CC(C)C)C(=O)N[C@@H](C)C(=O)N[C@@H](C)C(=O)N[C@@H](CC(C)C)C(=O)N[C@@H](C)C(=O)NCC(=O)N[C@@H](CCCCN)C(=O)N[C@H](C(=O)N[C@@H](CC(C)C)C(N)=O)[C@@H](C)CC` [G11], for which the “Average (percentage cell inhibition), Dmastoparan MDA-MB231 12.5uM” value in the assay on MDA-MB-231 cells is on record as 29.778%. Further, the “Average (percentage cell inhibition), Mastoparan PBMC” value in the assay on PBMC stood at 15.1682%.
Take `CC[C@H](C)[C@H](N)C(=O)N[C@@H](CC(N)=O)C(=O)N[C@@H](CC(C)C)C(=O)N[C@@H](CCCCN)C(=O)N[C@@H](C)C(=O)N[C@@H](CC(C)C)C(=O)N[C@@H](C)C(=O)N[C@@H](C)C(=O)N1CCC[C@H]1C(=O)N[C@@H](C)C(=O)N[C@@H](CCCCN)C(=O)N[C@@H](CCCCN)C(=O)N[C@H](C(=O)N[C@@H](CC(C)C)C(N)=O)[C@@H](C)CC` [P9]: the “Average (percentage cell inhibition), Dmastoparan MDA-MB231 12.5uM” value with MDA-MB-231 cells turned out to be 35.5446%. The “Average (percentage cell inhibition), Mastoparan PBMC” value with PBMC was -6.87%.
